Source: patent publication US6642209B1, “Use of adenosine compounds to alleviate or normalize pathologically hyperexcited sensory nerve function in a human patient” (priority 1990, dated 2003)
Entries after “also recorded” stand apart in the source; their conditions may differ.

Experiments:
dogs = experiment: Oxygen transport and regional tissue oxygenation during graded induced hypotension; format: in vivo, dog; details: for O2 supply/demand ratio: graded hypotension to MAP 30 mmHg
Method: Arterial and pulmonary artery (Swan-Ganz) catheters were placed via a femoral cut down. […] Another PO2 sensor probe was placed on the surface of the liver, kidney, subcutaneous, and muscle of the chest wall through a small skin incision. Referring to FIG. 6, the dogs were divided into three groups: (a) hemorrhagic (n=7), (b) isoflurane (n=8), and (c) ATP (n=8). […] The following were measured and/or calculated: […] The data were analyzed using ANOVA with the Bonferroni t-test and unpaired t-test where appropriate, accepting p<0.05 as significant.

rabbits [1] = experiment: Hypothermia induced under adenosine or ATP infusion; format: in vivo, rabbit
Method: The hypothermic and rewarming effects of an adenosine compound are tested in experimental animals prepared similarly as in the rabbit model described herein to test for anesthetic effects, except that the body temperature is allowed to fall. In animal studies (rabbit) where the room has a temperature of approximately 22° C., the body temperature will fall from a norm of about 39° C. to about 32° C. in about three hours. If the animal is cooled further with ice bags, a temperature of approximately 22° C. can be achieved in three hours without cardiovascular decompensation. Rewarming is done with the aid of a thermal blanket and heat lamp. The effective dosages of adenosine compound ranged from about 100 μg/kg/min to about 5000 μg/kg/min.
Referring to FIG. 7, the body temperature versus time plots are shown for eight different experiments. In Run 1, adenosine 500 μg/kg/min was administered intravenously to rabbits for six hours. The administration was then stopped and the body temperatures were allowed to recover.
In Run 2, ATP 500 μg/kg/min was administered intravenously for six hours. At that time, the body temperature was 31.5° C. The animal's body temperature was allowed to recover by applying external heating for four hours when (at the arrow) the external heating was removed and the temperature was allowed to fall. The body temperature again fell.
In Run 3, ATP was administered intravenously. The body temperature stabilized after ten hours at 32.5° C.
In Runs 4, 5, and 6, adenosine was administered to rabbits until the body temperature reached a constant value. In Run 4, after five hours, the body temperature stabilized at 33° C. In Run 6, after six hours, the temperature stabilized at 31.5° C.
In Run 7, five unmedicated New Zealand rabbits were anesthetized with halothane in O2 using a face mask. The ear vein was cannulated with a 22 gauge plastic catheter for drug infusion. 500 μg/kg/min to 5500 μ/kg/min adenosine was administered IV. Body temperature was monitored through a rectal thermometer. The body temperature started at approximately 38.5° C. After the application of ice bags, the temperature dropped approximately 5.5° C./hr until a minimum body temperature of approximately 22° C. was achieved.
The ice bags were removed and external heating applied. The body temperature of all rabbits returned to normal, and the rabbits were apparently normal.
In a comparison, in Run 8, six rabbits were anesthetized with isofluane and external cooling applied.

experimental animals [2] = experiment: Lethal to effective dose margin; format: in vivo
Method: In contrast to other conventional anesthetics, the adenosine compounds are useful over a wide dose range. For example, adenosine is active over a as range of between 1 to 5000 μg/kg/min. In contrast, conventional anesthetic agents, such as isoflurane, have narrow effective ranges. The fatal to effective anesthetic ratio of isoflurane is 3.02±0.13. Other reports indicate that isoflurane has about 1.88 times the safety range of halothane. […] Of course, the anesthesiologist will err on the side of administering too little and, thereby, runs the risk of underdosing the patient. This need for caution may result in an inadequately anesthetized (subanesthetized) patient during the surgical procedure.
One great advantage observed with adenosine compounds is the wide margin for error on effective therapeutic range. This advantage is exemplified by adenosine where the lethal dose is about 100 times the dose required for analgesia, and ATP where the lethal dose is greater than 150 times the amount required for analgesia.

surgical patients [3] = experiment: ATP infusion to attenuate surgical stress response in patients
surgical patients [4] = experiment: ATP anesthesia replacing enflurane or N2O in patients undergoing oral surgery
rabbits [5] = experiment: Replacement of enflurane anesthesia by ATP infusion, electrical tail stimulation and tail clamp
[6] = Anesthesia score chart comparing anesthetic agents for the four components of anesthesia (Table 1); set-up: key: 0 no effect; 1 minimal; 2 mostly; 3 maximal
experimental animals [7] = details: cited from earlier work
[8] = GROUP A spontaneously breathing, ATP infusion time 60 min, n = 18, mean
[9] = GROUP A spontaneously breathing, ATP infusion time 120 min, n = 16, mean
[10] = GROUP A spontaneously breathing, ATP infusion time 180 min, n = 3, mean
[11] = GROUP A spontaneously breathing, ATP infusion time 240 min, n = 1
[12] = GROUP B mechanically breathing, ATP infusion time 60 min, n = 14, mean
[13] = GROUP B mechanically breathing, ATP infusion time 120 min, n = 10, mean
[14] = GROUP B mechanically breathing, ATP infusion time 180 min, n = 5, mean
[15] = GROUP B mechanically breathing, ATP infusion time 240 min, n = 4, mean
[16] = N2O 60%, ENF 2.0-[…], ATP 362 ± 164 μg/kg/min, Mean ± SD, n = 6

## Nc1ncnc2c1ncn2[C@@H]1O[C@H](COP(=O)(O)OP(=O)(O)OP(=O)(O)O)[C@@H](O)[C@H]1O [ATP, adenosine triphosphate]
dogs
  O2 supply/demand ratio: positive O2 supply/demand ratio in all stages of hypotension
Rabbits [1]; Run 2, 500 μg/kg/min intravenously for six hours
  body temperature: 31.5 °C
Rabbits [1]; Run 3, intravenously, after ten hours
  body temperature at which it stabilized: 32.5 °C
Experimental animals [2]; enormous overdoses
  deaths on overdose: no experimental animals died
Experimental animals [2]; in vivo
  lethal dose relative to the dose required for analgesia: greater than 150 times
Surgical patients [3]; [8]
  BE: −3.3
  Hb: 12.6
  PCO2: 44.1
  PO2: 140.9
  pH (arterial blood gas): 7.33
Surgical patients [3]; [9]
  BE: −3.2
  Hb: 12.8
  PCO2: 41.9
  PO2: 137.9
  pH (arterial blood gas): 7.34
Surgical patients [3]; [10]
  BE: −3.0
  Hb: 11.9
  PCO2: 39.9
  PO2: 165.5
  pH (arterial blood gas): 7.36
Surgical patients [3]; [11]
  BE: −4.1
  Hb: 10.7
  PCO2: 31.0
  PO2: 115.1
  pH (arterial blood gas): 7.39
Surgical patients [3]; [12]
  BE: −4.2
  Hb: 11.7
  PCO2: 40.2
  PO2: 140.3
  pH (arterial blood gas): 7.34
Surgical patients [3]; [13]
  BE: −4.8
  Hb: 11.2
  PCO2: 40.1
  PO2: 142.6
  pH (arterial blood gas): 7.33
Surgical patients [3]; [14]
  BE: −5.2
  Hb: 11.8
  PCO2: 41.6
  PO2: 130.4
  pH (arterial blood gas): 7.32
Surgical patients [3]; [15]
  BE: −5.4
  Hb: 11.7
  PCO2: 45.4
  PO2: 130.1
  pH (arterial blood gas): 7.288
Surgical patients [3]; Group A, spontaneous ventilation, n=20
  Intra-operative urine output: 58.7 (±43.3) ml/hr
Surgical patients [3]; Group B, mechanically ventilated, n=14
  Intra-operative urine output: 71.8 (±44.6) ml/hr
Surgical patients [3]; after discontinuation of N2O and ATP
  emergence from anesthesia: all patients emerged from anesthesia smoothly
Surgical patients [3]; continuous infusion in combination with N2O
  cardiovascular and neurobehavioral responses to surgery: effectively inhibited
Surgical patients [3]; continuous infusion of ATP
  ENF requirement: markedly reduced
Surgical patients [3]; during ATP infusion
  hemodynamic and respiratory functions: well maintained
Surgical patients [4]; 14 patients, Mean ± SD
  ATP infusion dose titrated until ENF or N2O was completely replaced: 108 ± 21 µg/kg/min
  Urine output: 111 ± 16 mL/h
Surgical patients [4]; during ATP infusion in spontaneously breathing patients
  ventilatory or blood gas deterioration: No ventilatory or blood gas deterioration was seen
Rabbits [5]; FIG. 4
  purposeful escape movements on electrical tail stimulation: purposeful escape movements decreased
Rabbits [5]; IV ATP
  analgesic effect after the infusion had stopped: selective analgesic effect persisted
Rabbits [5]; [16]
  DBP: 83 ± 16 mmHg
  HR: 278 ± 26 bpm
  PaCO2: 22 ± 3 mmHg
  PaO2: 145 ± 24 mmHg
  RR (Respiratory Rate): 81 ± 14 bpm
  SBP: 112 ± 20 mmHg

## FC(F)OC(Cl)C(F)(F)F (stereo not shown) [isoflurane]
[6]; Anesthesia Score 0 to 3
  Antinociception (analgesia, less pain perception): 1
  Inhibition of Stress (autonomic responses: blood pressure, heart rate; endocrine and metabolic responses): 1
  Muscle Relaxation: 1
  Sleep (unconsciousness, amnesia, sedation): 3
[6]; sum of the four components
  TOTALS of Anesthesia Score: 6
dogs
  O2 supply/demand ratio: reduced O2 supply/demand ratio
dogs; graded hypotension, higher dosage
  O2 delivery (DO2): seriously depressed DO2
Rabbits [1]; external cooling, Run 7 (five rabbits), Run 8 (six rabbits)
  survival during body temperature lowering: one rabbit expired due to ventricular fibrillation; also recorded: another expired due to pulmonary edema
Rabbits [1]; external cooling, Run 7, Run 8
  shivering during body temperature lowering: shiver violently
Experimental animals [7]; in vivo
  fatal to effective anesthetic ratio: 3.02±0.13
Experimental animals [7]; other reports
  safety range relative to halothane: about 1.88 times
